Test results as given in patent publication US7465814B2, “Sulfonate compound and fluorescent probe using the same” (priority 2003, dated 2008).

What was measured:
[1] = Fluorescent response to XO-HPX system, 96-well microplate (Table 1); format: biochemical; conditions: relative fluorescence intensity, blank = 10, probe 21.3 μM, 10 minutes; for fluorescent response, XO—HPX: XO 13.1 mU/mL, HPX 50 μM, HEPES pH 7.4, 37° C.; for fluorescent response, XO—HPX—SOD: XO-HPX with SOD, 37° C.
Protocol: (§1) Moreover, in other conditions than those of the above-described tests, reactivity of all of the compounds 1a to 1d with H2O2, other various kinds of nucleophilic agents, reducing agents and the like also was tested, respectively. More specifically, fluorescent responses of 1a to 1d with respect to a XO-HPX system, a XO-HPX-SOD system, H2O2, ascorbic acid, 1,4-hydroquinone, propylamine, diethylamine, glucose, esterase, a cytochrome P450 reductase+NADPH system, and a diaphorase+NADH system were measured, respectively. Operational processes thereof will be described below. Firstly, 1a to 1d and the above-described reagents were dissolved in HEPES of 10 mM having a pH of 7.4 so as to prepare solutions, respectively. Next, a 96 wellmicroplate was provided, where any of the solutions of 1a to 1d (25 μM, 170 μL) was poured into each of the wells, and furthermore, 30 μL of a blank solution or 30 μL of the solution of the reagent to be reacted therewith was added thereto. Final concentrations of the solutions in the wells were adjusted so that concentrations of the solutions of 1a to 1d respectively could be 21.3 μM, that of XO could be 13.1 mU/mL, those of HPX, H2O2, ascorbic acid, 1,4-hydroquinone, propylamine, diethylamine, glucose, NADPH and NADH respectively could be 50 μM, that of cytochrome P450 reductase could be 68 mU/mL, that of diaphorase could be 65 mU/mL, and that of esterase could be 0.5 U/mL, respectively. Then, after they reacted in the wells at 37° C. for 10 minutes, fluorescent responses were measured respectively. Fluorescence intensity measurement was conducted by using an ETC-272 Peltier thermostatted single cell holder (trade name) manufactured by JASCO Corporation or a SpectraMax GeminiEM fluorescence plate reader (trade name) manufactured by Molecular Devices Corporation provided with a FP-750 spectrofluorometer (trade name) manufactured by JASCO Corporation, and by setting excitation wavelengths and emission wavelengths so that those of 1a, 1b and 1c respectively could be 485 nm and 515 nm, and those of 1d respectively could be 511 nm and 540 nm.

[2] = Fluorescent response to diethylamine (Table 1); format: biochemical; conditions: relative fluorescence intensity, blank = 10; probe 21.3 μM, diethylamine 50 μM, 37° C., 10 minutes
Protocol: as §1

[3] = Fluorescent response to glucose (Table 1); format: biochemical; conditions: relative fluorescence intensity, blank = 10; probe 21.3 μM, glucose 50 μM, 37° C., 10 minutes
Protocol: as §1

[4] = Fluorescent response to 1,4-hydroquinone (Table 1); format: biochemical; conditions: relative fluorescence intensity, blank = 10; probe 21.3 μM, 1,4-hydroquinone 50 μM, 37° C., 10 minutes
Protocol: as §1

esterase = experiment: Fluorescent response to esterase (Table 1); format: biochemical; conditions: relative fluorescence intensity, blank = 10; probe 21.3 μM, esterase 0.5 U/mL, 37° C., 10 minutes
Protocol: as §1

[5] = Fluorescent response to propylamine (Table 1); format: biochemical; conditions: relative fluorescence intensity, blank = 10; probe 21.3 μM, propylamine 50 μM, 37° C., 10 minutes
Protocol: as §1

[6] = Fluorescent response to ascorbic acid (Table 1); format: biochemical; conditions: relative fluorescence intensity, blank = 10; probe 21.3 μM, ascorbic acid 50 μM, 37° C., 10 minutes
Protocol: as §1

[7] = Fluorescent response to H2O2 (Table 1); format: biochemical; conditions: relative fluorescence intensity, blank = 10; probe 21.3 μM, H2O2 50 μM, 37° C., 10 minutes
Protocol: as §1

Voltammetry measurement = format: physicochemical; conditions: CH3CN—H2O (3:1) containing Et4NClO4
neutrophils = tested on: neutrophils
Protocol: Moreover, a toxicity of the compound 1d with respect to the neutrophils was evaluated by estimating cell viability by a trypan blue dyeing method. More specifically, the neutrophils (1.0×10^5 cells) were incubated at 37° C. for 120 minutes in a glass test tube coated with human serum albumin, in the presence of both of the compound 1d (6.25 μM) and PMA (0.16 μM), in the presence of either of them, and in the absence of them, respectively. Then, cell viability after the incubation with respect to cell viability before the incubation was measured.

[8] = Fluorescence response to thiophosphonate group (FIG. 8); format: biochemical; conditions: for sensitivity of γ-S-ATP detection relative to 8a: similar tests; for response to thiol group in thiophosphonate group: γ-S-ATP and adenosine monothiophosphate (S-AMP)
Description: Moreover, a capability of the sulfonate compound of the present invention as a fluorescent probe for mercapto compounds other than thiol (a compound in which a —SH group is bonded to a carbon atom) was examined. […]

[9] = Responses to the compounds listed in Table 1; format: biochemical; conditions: same conditions as Example 1
Protocol: as §1
(§2) The reactivity of each of the compounds 1d, 5a, 6a, 7 and 8a with respect to superoxide and glutathione (GSH) that is a kind of thiol was tested under the same conditions as those of [1-3. Superoxide-selectivity (2)] in Example 1. […] A vertical axis thereof denotes a fluorescence intensity, which is represented in % of control.

[10] = Reactivity with superoxide and glutathione (FIG. 4); format: biochemical; conditions: for selectivity (specificity), superoxide versus glutathione, FIG. 4: same conditions as 1-3 Superoxide-selectivity (2)
Protocol: as §1, §2

[11] = Capability as superoxide-detecting fluorescent probe (reactivity with superoxide); format: biochemical; conditions: tested similarly to the compound 1d
Protocol: Then, by mainly using the compound 1d as a testing compound, the capability thereof as a superoxide-selective fluorescent probe was evaluated, and moreover, a test in a cell system also was conducted. These tests will be described below.
Thus, it is thought that each compound synthesized from a combination of: a phenolic colorant; and a 2,4-dinitrobenzenesulfonyl group, a 4-trifluoromethyl-2-nitrobenzenesulfonyl group or a 4-nitrobenzenesulfonyl group can be used as a superoxide-detecting fluorescent probe similarly. An example of the usage thereof will be shown in Scheme 8 below. Furthermore, it can be expected that a compound for a fluorescent probe having characteristics that are suitable for its application purpose can be designed and developed freely, by designing the compound of the present invention freely within the limitation defined by the general formula (I) and using the fluorescence mechanism developed by the inventors of the present invention, without being limited to the above-described combinations. Examples of the application purpose of the compound of the present invention are varied, including an application to a faintly coloring technique using superoxide.

O=C1OC2(c3cc(Cl)c(OS(=O)(=O)c4ccc([N+](=O)[O-])cc4[N+](=O)[O-])cc3Oc3cc(OS(=O)(=O)c4ccc([N+](=O)[O-])cc4[N+](=O)[O-])c(Cl)cc32)c2ccccc21 [Compound 1b]
fluorescent response, XO—HPX [1]: 288 | fluorescent response, XO—HPX—SOD [1]: 22 | fluorescent response, diethylamine [2]: 10 | fluorescent response, glucose [3]: 10 | fluorescent response, 1,4-hydroquinone [4]: 11 | fluorescent response, esterase (esterase): 20 | fluorescent response, propylamine [5]: 10 | fluorescent response, ascorbic acid [6]: 11 | fluorescent response, H2O2 [7]: 11 | cathode response (Voltammetry measurement): about −0.5 V vs SCE

O=C1OC2(c3cc(F)c(OS(=O)(=O)c4ccc([N+](=O)[O-])cc4[N+](=O)[O-])cc3Oc3cc(OS(=O)(=O)c4ccc([N+](=O)[O-])cc4[N+](=O)[O-])c(F)cc32)c2ccccc21 [Compound 1c]
fluorescent response, XO—HPX [1]: 797 | fluorescent response, XO—HPX—SOD [1]: 48 | fluorescent response, diethylamine [2]: 10 | fluorescent response, glucose [3]: 10 | fluorescent response, 1,4-hydroquinone [4]: 10 | fluorescent response, esterase (esterase): 23 | fluorescent response, propylamine [5]: 10 | fluorescent response, ascorbic acid [6]: 11 | fluorescent response, H2O2 [7]: 11 | cathode response (Voltammetry measurement): about −0.5 V vs SCE

CCCCCCCCCCCCCC(=O)O[C@@H]1[C@@H](C)[C@@]2(O)[C@@H](C=C(CO)C[C@]3(O)C(=O)C(C)=C[C@@H]23)[C@@H]2C(C)(C)[C@]12OC(C)=O [PMA, phorbol myristate acetate, reference compound]
toxicity with respect to the neutrophils (neutrophils; incubation of 120 minutes): did not show any significant toxicity | cell viability after the incubation with respect to before the incubation (neutrophils; substance only (1d 6.25 μM or PMA 0.16 μM), 1.0×10^5 neutrophils, 37° C., 120 minutes): 93%

Cc1cc2c(-c3ccccc3C(=O)O)c3cc(C)c(=O)cc-3oc2cc1OS(=O)(=O)c1ccc([N+](=O)[O-])cc1[N+](=O)[O-] [Compound 8b]
sensitivity of γ-S-ATP detection relative to 8a [8]: sensitivity still higher than that of 8a | response with respect to each of the compounds listed in Table 1 [9]: almost no response | response to glutathione [10]: responded to glutathione with high sensitivity

O=C(O)c1ccccc1-c1c2cc(F)c(=O)c(F)c-2oc2c(F)c(OS(=O)(=O)c3ccc([N+](=O)[O-])cc3)c(F)cc12 [Compound 4b]
deprotection by superoxide into the corresponding fluorochrome [11]: deprotected by superoxide

O=C1OC2(c3ccccc31)c1cc(F)c(OS(=O)(=O)c3ccc(C(F)(F)F)cc3[N+](=O)[O-])c(F)c1Oc1c2cc(F)c(OS(=O)(=O)c2ccc(C(F)(F)F)cc2[N+](=O)[O-])c1F [Compound 3]
deprotection by superoxide into the corresponding fluorochrome [11]: deprotected by superoxide

O=C1OC2(c3ccc(OS(=O)(=O)c4ccc([N+](=O)[O-])cc4[N+](=O)[O-])cc3Oc3cc(OS(=O)(=O)c4ccc([N+](=O)[O-])cc4[N+](=O)[O-])ccc32)c2ccccc21 [Compound 1a]
fluorescent response, XO—HPX [1]: 70 | fluorescent response, XO—HPX—SOD [1]: 12 | fluorescent response, diethylamine [2]: 11 | fluorescent response, glucose [3]: 10 | fluorescent response, 1,4-hydroquinone [4]: 10 | fluorescent response, esterase (esterase): 17 | fluorescent response, propylamine [5]: 10 | fluorescent response, ascorbic acid [6]: 10 | fluorescent response, H2O2 [7]: 10 | cathode response (Voltammetry measurement): about −0.5 V vs SCE

O=c1ccc2nc3ccc(OS(=O)(=O)c4ccc([N+](=O)[O-])cc4[N+](=O)[O-])cc3oc-2c1 [Compound 5a]
response to thiol group in thiophosphonate group [8]: responded to a thiol group in a so-called thiophosphonate group | deprotection by superoxide into the corresponding fluorochrome [11]: deprotected by superoxide | response with respect to each of the compounds listed in Table 1 [9]: almost no response | selectivity (specificity), superoxide versus glutathione, FIG. 4 [10]: excellent mercapto compound-selectivity

O=C(O)c1ccccc1-c1c2cc(F)c(=O)c(F)c-2oc2c(F)c(OS(=O)(=O)c3ccc(C(F)(F)F)cc3[N+](=O)[O-])c(F)cc12 [Compound 4a]
deprotection by superoxide into the corresponding fluorochrome [11]: deprotected by superoxide

Cc1c2oc3c(C)c(OS(=O)(=O)c4ccc([N+](=O)[O-])cc4[N+](=O)[O-])ccc3c(-c3ccccc3C(=O)O)c-2ccc1=O [Compound 8c]
sensitivity of γ-S-ATP detection relative to 8a [8]: sensitivity still higher than that of 8a | response with respect to each of the compounds listed in Table 1 [9]: almost no response | response to glutathione [10]: responded to glutathione with high sensitivity

O=c1cc(C(F)(F)F)c2ccc(OS(=O)(=O)c3ccc(C(F)(F)F)cc3[N+](=O)[O-])cc2o1 [Compound 6b]
deprotection by superoxide into the corresponding fluorochrome [11]: deprotected by superoxide

O=c1ccc2nc3ccc(OS(=O)(=O)c4ccc(C(F)(F)F)cc4[N+](=O)[O-])cc3oc-2c1 [Compound 5b]
deprotection by superoxide into the corresponding fluorochrome [11]: deprotected by superoxide

Cc1cc(=O)oc2cc(OS(=O)(=O)c3ccc([N+](=O)[O-])cc3[N+](=O)[O-])ccc12 [Compound 7]
response to thiol group in thiophosphonate group [8]: responded to a thiol group in a so-called thiophosphonate group | response with respect to each of the compounds listed in Table 1 [9]: almost no response | selectivity (specificity), superoxide versus glutathione, FIG. 4 [10]: excellent mercapto compound-selectivity
